Test results from patent publication US9889180B2, “Method of treating cancer” (Agency for Science, Technology and Research, priority 2012, dated 2018).
Entries after “also recorded” stand apart in the source; their conditions may differ.

Key:
[1] = system: IFNGR1 expression and IFN-γ-STAT1 signaling; experiment: qRT-PCR and western blot of IFNGR1 expression and IFN-γ signaling in DU145 cells; format: cell-based, human
Protocol: All cells were maintained at 37° C. with 5% CO2. Cells were grown until they were 80% confluent before they are treated the respective drugs. For drug treatment, DZNep and GSK126 were purchased from Pharmaron Inc. (Beijing, China), GSK343 was kindly provided by Chemical Probes of University of Toronto, 5′Aza, TSA and human recombinant IFN-γ was purchased from Sigma. For rescue experiment using IFNGR1 blocking antibody, the neutralizing antibody that specifically targets IFNGR1 (anti-CD119, GIR-208, BD Pharmingen) was added to the medium 4 hour prior to the addition of DZNep or/and IFN-γ. Total RNA was isolated by using Trizol (Invitrogen) and purified with the RNeasy Mini Kit (Qiagen). The microarray hybridization was performed using the Illumina Gene Expression Sentrix BeadChip HumanRef-8_V3, and data analysis was performed by GeneSpring software from Agilent Technologies as described previously. The analyzed gene sets by GeneSpring were next subjected to Ingenuity Pathway Analysis (IPA) for gene ontology (GO) analysis. Reverse transcription and quantitative PCR assays were performed using High Capacity cDNA Archive kit and KAPA SyBr Fast qPCR kit (KAPA biosystems). For quantification of mRNA levels, 18S level was used as an internal control. All reactions were analyzed in an Applied Biosystems PRISM 7500 Fast Real-Time PCR system in 96-well plate format. Western Blotting was performed as described previously. Briefly, Cells were scraped, collected, and lysed in RIPA buffer. To release histones from chromatin, cell lysates were further sonicated for 15 sec using a XL2000 Microson Ultrasonic Processor (Misonix). Equal amounts of protein (30 μg) were separated on SDS-polyacrylamide gels and transferred to PVDF membranes. The blots were probed with antibodies against EED (07-368), SUZ12 (07-379), trimethylated H3-K27 (07-449), Acetyl-Histone H3 (06-599), which were purchased from Upstate Biotechnology. IFNGR1 (GIR-94) and anti-IFI16 (1G7) were purchased from Santa Cruz. EZH2 phospho S21 (00388) was purchased from Bethyl Laboratories. EZH2 (AC22), P110α PI3K, p-AKT (T308), p-AKT (S473), pSTAT1Y701, total STAT1, Histone H3 (3H1), Beclin-1 and cleaved PARP were purchased from Cell Signaling. Myc and Actin were purchased from Roche Applied Science and Sigma-Aldrich, respectively.

IFNGR1 expression = experiment: qRT-PCR of IFNGR1 in MDA-MB-231 cells; format: cell-based, human; conditions: ER− basal like MDA-MB-231 cells
Protocol: (§1) Total RNA was isolated by using Trizol (Invitrogen) and purified with the RNeasy Mini Kit (Qiagen). The microarray hybridization was performed using the Illumina Gene Expression Sentrix BeadChip HumanRef-8_V3, and data analysis was performed by GeneSpring software from Agilent Technologies as described previously. The analyzed gene sets by GeneSpring were next subjected to Ingenuity Pathway Analysis (IPA) for gene ontology (GO) analysis. Reverse transcription and quantitative PCR assays were performed using High Capacity cDNA Archive kit and KAPA SyBr Fast qPCR kit (KAPA biosystems). For quantification of mRNA levels, 18S level was used as an internal control. All reactions were analyzed in an Applied Biosystems PRISM 7500 Fast Real-Time PCR system in 96-well plate format.
Western Blotting was performed as described previously. Briefly, Cells were scraped, collected, and lysed in RIPA buffer. To release histones from chromatin, cell lysates were further sonicated for 15 sec using a XL2000 Microson Ultrasonic Processor (Misonix). Equal amounts of protein (30 μg) were separated on SDS-polyacrylamide gels and transferred to PVDF membranes. The blots were probed with antibodies against EED (07-368), SUZ12 (07-379), trimethylated H3-K27 (07-449), Acetyl-Histone H3 (06-599), which were purchased from Upstate Biotechnology. IFNGR1 (GIR-94) and anti-IFI16 (1G7) were purchased from Santa Cruz. […]

[2] = system: IFNGR1 expression and STAT1 activation; experiment: qRT-PCR and western blot of IFNGR1 and IFN signaling in MCF7 cells; format: cell-based, human; conditions: for IFNGR1 expression: ER+ luminal MCF7 cells
Protocol: as §1
(§2) Western Blotting was performed as described previously. Briefly, Cells were scraped, collected, and lysed in RIPA buffer. To release histones from chromatin, cell lysates were further sonicated for 15 sec using a XL2000 Microson Ultrasonic Processor (Misonix). Equal amounts of protein (30 μg) were separated on SDS-polyacrylamide gels and transferred to PVDF membranes. The blots were probed with antibodies against EED (07-368), SUZ12 (07-379), trimethylated H3-K27 (07-449), Acetyl-Histone H3 (06-599), which were purchased from Upstate Biotechnology. IFNGR1 (GIR-94) and anti-IFI16 (1G7) were purchased from Santa Cruz. EZH2 phospho S21 (00388) was purchased from Bethyl Laboratories. EZH2 (AC22), P110α PI3K, p-AKT (T308), p-AKT (S473), pSTAT1Y701, total STAT1, Histone H3 (3H1), Beclin-1 and cleaved PARP were purchased from Cell Signaling. Myc and Actin were purchased from Roche Applied Science and Sigma-Aldrich, respectively.

DU145 cells = experiment: FACS sub-G1 DNA analysis (apoptosis) in DU145 cells; format: cell-based, human; conditions: for apoptosis (sub-G1) after knockdown: siRNA knockdown in combination with IFN-γ
Protocol: For the assessment of cell death, cells were harvested in 70% ethanol. Fixed cells were stained with Propidium Iodide (P.I) (50 μg/mL). The stained cells were analyzed for DNA content by FACS in a FACSCalibur (Becton Dickinson Instrument). % of cell death was defined as the sub-G1 population quantified using the CellQuest software (Becton Dickinson). The percentage of dead cells or sub-G1 cells was calculated by comparing the results of each experiment to the results from DMSO-treated cells. Each assay was repeated a minimum of three times, with results reported as means+s.e.m.

DU145 xenograft tumor = DU145 xenograft tumor growth in male athymic nude mice; format: in vivo; conditions: IFN-γ 1×10^7 IU/kg i.p. daily, DZNep 1 mg/kg s.c. every alternating day, 38 days
Protocol: For in vivo evaluation of DZNep and IFN-γ treatment, the experiments were conducted in compliance with animal protocol approved by the ASTAR-Biopolis Institutional Animal Care and Use Committee (IACUC) of Singapore. DU145 cells were subcutaneously injected into 6-8 week male nude mice at 5×10^6 cells, followed by treatment with vehicle, IFN-γ (1×10^7 IU/kg) alone, DZNep (1 mg/kg) alone or combined DZNep (1 mg/kg) with IFN-γ (1×10^7IU/kg). IFN-γ was administered by intraperitoneal injection daily and DZNep by subcutaneous injection on every alternating day over a duration of 38 days after average tumor size reached around 150 mm^3. Tumors were measured by vernier calliper at least twice per week and tumors volume was calculated with formula: V=W*W*L/2. Each xenograft treatment arm comprised of 5-8 mice. Differences among groups and treatments were determined by ANOVA followed by t tests. (***p<0.001, n.s=not significant) Error bars represent means±s.e.m

[3] = system: IFNGR1 expression and STAT1 activation; experiment: Western blot of IFNGR1 and IFN signaling in T47D cells; format: cell-based, human
Protocol: as §2

[4] = in response to IFN-γ stimulation

EZH2 knockdown: EZH2 siRNA: 5′-GACUCUGAAUGCAGUUGCU-3′ (SEQ ID NO: 1) (other strand not given here)
IFNGR1 protein expression after knockdown [1]: restored the IFNGR1 protein expression | STAT1 phosphorylation and IFI16 expression after knockdown [1, 4]: enhanced the STAT1 phosphorylation and the expression of IF116 | activation of IFN genes after knockdown [1, 4]: robust activation of IFN genes | IFNGR1 expression (IFNGR1 expression): not seen | IFNGR1 expression [2]: induction of IFNGR1 at both mRNA and protein levels | apoptosis (sub-G1) after knockdown (DU145 cells): apoptosis induction | apoptosis (sub-G1) after knockdown (DU145 cells; listed as siEZH2): specifically enhances IFN-γ mediated cell death

Cl.Nc1nccc2c1ncn2[C@@H]1C=C(CO)[C@@H](O)[C@H]1O [DZNep, (−)-1-[(1R,4R,5S)-3-(Hydroxymethyl)-4,5-dihydroxy-2-cyclopenten-1-yl]4-aminoimidazo[4,5-c]pyridine hydrochloride]
expression of IFN genes ([1]; DZNep (2.5 μM) combined with IFN-γ): strong inductions of IFN genes | STAT1 phosphorylation ([1]; DZNep (2.5 μM) combined with IFN-γ, 3 days): strong inductions | IFNGR1 expression ([1]; DZNep (2.5 μM), 3 days, hydrochloride): induced the expression of IFNGR1; also recorded: induced a marked expression of IFNGR1 | IFNAR1 expression ([1]; DZNep treatment): did not change IFNAR1 expression | IFNGR1 expression (IFNGR1 expression): not seen | xenograft tumor growth (DU145 xenograft tumor): slowed down the tumor growth | IFNGR1 expression ([2]; hydrochloride): induction of IFNGR1 at both mRNA and protein levels; also recorded: restored the IFNGR1 expression | STAT1 activation and PARP cleavage ([2]; MCF-7 cells, DZNep co-treated with IFN-γ): increased STAT1 activation and PARP cleavage | IFNGR1 expression [3]: restored the IFNGR1 expression | STAT1 activation and PARP cleavage ([3]; DZNep co-treated with IFN-γ): increased STAT1 activation and PARP cleavage | apoptosis (sub-G1) (DU145 cells; DZNep (2.5 μM) combined with increasing doses of IFN-γ, 3 days): synergistic induction of cell death
